Data: patent US5908868A, “Retinol derivatives useful for enhancing immune response” (priority 1995, dated 1999)
Entries after “also recorded” stand apart in the source; their conditions may differ.

How the values were obtained:
fibroblasts = experiment: Expression of immediate early genes; format: cell-based; conditions: unpublished work
[1] = Stability (half-life) in serum-free tissue culture; format: in vitro ADME
26 mammalian cells = experiment: 14HRR production from 3H retinol in mammalian cell lines; format: in vitro ADME; conditions: 3H retinol bound to fetal calf serum
Text: The use of ^3 H retinol bound to fetal calf serum was used as an assay to test for P3 in other cell lines.
The use of ^3 H retinol bound to fetal calf serum was used as an assay to test for 14HRR in other cell lines.

SK-N-SH = experiment: Retinol metabolism; format: in vitro ADME, human
Protocol: (§1) FBS. The FBS was preincubated at room temperature with 14.4 uCi [^3 H
(§2) retinol (NEN) for 4 h. The cell pellet was washed twice with PBS. The
(§3) retinoid were extracted according to MClean et al. 90 and separated on an
(§4) analytical c18 reverse phase column according to FIG. 7. The DPM wer
(§5) determined using an online scintillation counter.

Ket = experiment: Retinol metabolism; format: in vitro ADME, human
Protocol: as §1, §2, §3, §4, §5

Hela = experiment: Retinol metabolism; format: in vitro ADME, human
Protocol: as §1, §2, §3, §4, §5

N-tera2 = experiment: Retinol metabolism; format: in vitro ADME, human
Protocol: as §1, §2, §3, §4, §5

SKL3 = experiment: Retinol metabolism; format: in vitro ADME, human
Protocol: as §1, §2, §3, §4, §5

5/2 lymphoblastoid cells = format: in vitro ADME, human
Protocol: FIG. 24. Kinetics of biosynthesis of 14HRR in lymphoblastoid cells. 50 ml ITLB 600,000 5/2 cells/ml were incubated with 20 μCi of ^3 H retinol in serum-free ITLB medium. Cell pellets corresponding to 10 ml of culture were delipidated at 20 minute intervals and the corresponding lipid fraction separated on an analytical C18 reversed-phase column (see FIG. 20). Radioactive peaks were identified by coelution with cold reference retinoids.
The kinetics of biosynthesis of 13,14DHR and 14HRR were determined in 5/2 lymphoblastoid cells. These cells were cultured in the presence of ^3 H retinol for different time periods, and the cell-associated retinoids extracted as referenced above. They were then chromatographed on an analytical C18 column as described in FIG. 20. The sizes of peaks emerging at 16.8 minutes, representing 13,14DHR, and 18.5 minutes, representing 14HRR, were measured and plotted in the bar diagram of FIG. 24.

5/2 cells = format: in vitro ADME, human
Protocol: 5/2 cells (10^6 cells in 10 ml HB 101 medium) were incubated with all-trans-[^3 H] retinol (10 uCe/ml). After 24 hours, retinoids were extracted from the washed cell pellet and unlabeled marker retinoids were added. The crude extract was loaded on an analytical reversed-phase C-18 column. Retinoids were eluted with the shown linear gradient of water/methanol/chloroform. The flow rate was 0.5 ml/min. DPM were determined with an on line scintillation counter. Reference retinoids were the all-trans forms of 0: 3,4-didehydroretinoic acid, 1: all-trans-retinoic acid, 2: 3,4-didehydroretinol, 3: retinol, 4: retinyl linoleate, 5: retinyl oleate, 6: retinyl palmitate. Shaded area corresponds to P3. Cross-hatched area corresponds to P1.
Lymphoblastoid 5/2 cells grown in the presence of 10^-6 M retinol were spiked with ^3 H-labeled retinol. After 16 hours the cell pellet was delipidated according to the method of McLean et al. and separated on a reversed phase C-18 HPLC column (FIG. 7). […] Three peaks, P1, P2 and P3, could not be immediately identified. One peak eluting at 36-39 minutes (corresponding 83% methanol 7% water) provisionally called P3, but now known as 14HRR, was unusual because unlike P1 eluting at 31-34 minutes, its relative amount increased when the retinol concentration was lowered or when retinol was given to the cells bound to RBP. […]

## CC(C=CC=C(C)C(O)CO)=CC=C1C(C)=CCCC1(C)C (stereo not shown) [14HRR, 14-hydroxy-4,14-retro-retinol]
fibroblasts
  expression of immediate early genes: facilitates the expression of immediate early genes in fibroblasts
[1]
  lability relative to retinal: much more labile molecule than retinal

## CC1=C(/C=C/C(C)=C/C=C/C(C)=C/CO)C(C)(C)CCC1 [retinol, all-trans retinol]
26 mammalian cells
  radioactivity peak at 14HRR (P3) position: radioactivity peak at the position where 14HRR normally elutes; also recorded: radioactivity peak at the position where P3 normally elutes
SK-N-SH
  Total cts.: 2.0 × 10^5 cts.
SK-N-SH; overnight
  Ester (% of taken up retinol): 25%
  P3 (% of taken up retinol): 0.9%
Ket
  Total cts.: 4.6 × 10^5 cts.
Ket; overnight
  Ester (% of taken up retinol): 41%
  P3 (% of taken up retinol): 3%
  Retinol (% of taken up retinol): 52%
Hela
  Total cts.: 1.0 × 10^5 cts.
Hela; overnight
  Ester (% of taken up retinol): 20%
  P3 (% of taken up retinol): 3%
  Retinol (% of taken up retinol): 71%
N-tera2; N-tera2
  Total cts.: 13.5 × 10^5 cts.
N-tera2; N-tera2, overnight
  Ester (% of taken up retinol): 97%
  P3 (% of taken up retinol): 0.4%
  Retinol (% of taken up retinol): 0.7%
SKL3; SKL3
  Total cts.: 1.6 × 10^5 cts.
SKL3; SKL3, overnight
  Ester (% of taken up retinol): 24%
  P3 (% of taken up retinol): 2%
  Retinol (% of taken up retinol): 71%
5/2 lymphoblastoid cells
  order of metabolite production: production of 13,14DHR precedes that of 14HRR
5/2 cells
  retinoids identified after 3H-retinol: 13-cis retinol, all-trans retinol, and several retinyl esters were identified
  retinoids not detected after 3H-retinol: Retinoic acid, 3,4-didehydroretinol acid as well as 3,4-didehydroretinol were not detectable
